Our source for the IC50, fold induction and Kd values is patent US20220324835A1 (Nurix Therapeutics, Inc., priority 2018, published 2022).

The target of assay [1] is T1, Cbl-b (Homo sapiens, UniProt Q13191). The assay is described as follows: Cbl-b inhibition assay (Cbl-b activity assay, FRET, Biological Example 1; 100 mM NaCl, 60 nM Src kinase). The settings on record: upper bound stated in text lists; read-out: IC50 values in the Cbl-b inhibition assay of Biological Example 1. Format: biochemical. The method, boiled down: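 Inhibitor activity is measured as reduced terbium-to-fluorescein FRET between streptavidin-terbium on biotinylated Cbl-b and Bodipy-fluorescein ubiquitin carried by an irreversible UbcH5B-Ub conjugate, binding of which depends on Src phosphorylation of Cbl-b.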
T1 sequence (Q13191 36-427): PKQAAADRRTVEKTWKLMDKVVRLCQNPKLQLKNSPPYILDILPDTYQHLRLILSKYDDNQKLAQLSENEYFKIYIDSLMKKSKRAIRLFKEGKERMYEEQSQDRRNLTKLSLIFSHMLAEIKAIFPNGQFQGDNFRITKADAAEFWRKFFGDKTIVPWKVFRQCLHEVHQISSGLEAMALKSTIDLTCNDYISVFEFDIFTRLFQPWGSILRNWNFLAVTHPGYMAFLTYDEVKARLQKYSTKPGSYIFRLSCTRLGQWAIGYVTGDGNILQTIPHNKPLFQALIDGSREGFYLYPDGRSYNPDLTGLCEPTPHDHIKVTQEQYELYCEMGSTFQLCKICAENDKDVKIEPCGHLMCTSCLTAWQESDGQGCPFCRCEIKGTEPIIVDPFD

For assay [2], the system named is T-cell. The assay is described as follows: CD25 cell surface staining on T-cells co-stimulated with anti-CD3 and anti-CD28 antibody (Biological Example 2). In kind it is cell-based, human. The settings on record: Homo sapiens, T-cell, primary human total T-cells, baseline = anti-CD3/anti-CD28 stimulated cells without inhibitor, read-out: CD25 staining, Anti-CD3/Anti-CD28 stimulation, fold change over baseline; for fold induction at 0.3 µM: 0.3 μM compound; for fold induction at 1 µM: 1 μM compound; for fold induction at 4 µM: 4 μM compound. The procedure, abridged: (§1)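 No assay protocol given; T-cells stimulated with anti-CD3 alone or anti-CD3 plus anti-CD28, with or without Cbl-b inhibitor. Activation read as IL-2 secretion or CD25 surface staining, expressed as fold over baseline from uninhibited cells […].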

For assay [3], the system named is T-cell. The assay is described as follows: CD25 cell surface staining on T-cells stimulated with anti-CD3 antibody alone (Biological Example 2). In kind it is cell-based. The settings on record: primary human total T-cells, baseline = anti-CD3/anti-CD28 stimulated cells without inhibitor, read-out: CD25 staining, Anti-CD3 stimulation, fold change over baseline; for fold induction at 1 µM: 1 μM compound; for fold induction at 8 µM: 8 μM compound.

For the next assay, the target named is Cbl-b (residues 36-427) (Homo sapiens, UniProt Q13191). The assay is described as follows: Cbl-b binding assay (SPR, Biacore T200). As to conditions: 20° C., 1:1 binding model. The method, boiled down: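 Affinities derived from global 1:1 steady-state or kinetic fits of double-referenced, solvent-corrected SPR data, 20 °C, NeutrAvidin-capture chip. Compound series (top 100 or 50 μM, 8–10 points) injected 50 s, 90–180 s dissociation. Asterisked values used 50 mM instead of 100 mM NaCl and 30 nM Src kinase.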
Chain of Cbl-b (residues 36-427) (Q13191 36-427): as above
(Surface plasmon resonance follows binding to a sensor surface in real time, without labels.)

For assay [4], the system named is T-cell. As to the kind of experiment: IL-2 secretion from T-cells co-stimulated with anti-CD3 and anti-CD28 antibody (Biological Example 2). Format: cell-based, human. As to conditions: Homo sapiens, T-cell, primary human total T-cells, baseline = anti-CD3/anti-CD28 stimulated cells without inhibitor, read-out: IL-2 secretion, Anti-CD3/Anti-CD28 stimulation, fold change over baseline; for fold induction at 0.3 µM: 0.3 μM compound; for fold induction at 1 µM: 1 μM compound; for fold induction at 4 µM: 4 μM compound. The procedure, abridged:
as §1

The subject of assay [5] is T-cell. The assay is described as follows: IL-2 secretion from T-cells stimulated with anti-CD3 antibody alone (Biological Example 2). Format: cell-based. As to conditions: primary human total T-cells, read-out: IL-2 secretion, Anti-CD3 stimulation, fold change over baseline; for fold induction at 1 µM: 1 μM compound; for fold induction at 8 µM: 8 μM compound.
For assay [6], the target named is T1, Cbl-b. As to the kind of experiment: Cbl-b activity assay (Cbl-b inhibition assay), TR-FRET of Cbl-b interaction with UbcH5B-Ub. In kind it is biochemical. As to conditions: assay buffer with 100 mM NaCl, 60 nM Src kinase; read-out: Cbl-b activity IC50. The procedure, abridged: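 TR-FRET readout of Cbl-b binding to Bodipy-fluorescein N-terminally labeled Ub conjugated to UbcH5B C85K, measured with compound present. After compound incubation, 60 nM Src kinase with 1 mM ATP and 5 mM MgCl2 (final) was added for 1.5 h, then a further 1 h incubation; asterisked values used 50 mM NaCl buffer and 30 nM Src.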
(In general: Time-resolved FRET reads energy transfer from a long-lived donor to a nearby acceptor.)

The IC50 is the concentration that inhibits the measured activity by half. A word on the Kd: it is a measure of binding affinity in units of concentration.

Take `C[C@H](Cc1nncn1C)c1cccc(N2Cc3c(cc([C@H]4CCCNC4)cc3C(F)(F)F)C2=O)c1` [Compound 383, 2-(3-((R)-1-(4-methyl-4H-1,2,4-triazol-3-yl)propan-2-yl)phenyl)-6-((R)-piperidin-3-yl)-4-(trifluoromethyl)isoindolin-1-one]: the IC50 at Cbl-b [1] is no more than 100 nM; on Cbl-b [6], less than 100 nM. Further, the fold induction at 0.3 µM in the assay with T-cell [2] is 1.31 to 1.5; with T-cell [4], 2.51 to 5. Moreover, the fold induction at 1 µM in the assay with T-cell [2] was 1.51 to 1.75; with T-cell [3], 0.801 to 1; in the assay with T-cell [4] it was 5 to 7.5; with T-cell [5], greater than 0.201. Further, the figures for the fold induction at 4 µM with T-cell [2] and in the assay with T-cell [4] were 1.51 to 1.75 and greater than 7.5, respectively. Moreover, the figures for the fold induction at 8 µM in the assay on T-cell [3] and in the assay on T-cell [5] were greater than 1 and greater than 0.201, respectively. This compound had a Kd at Cbl-b (residues 36-427) of 100 to 300 nM.

Take `C[C@H](Cc1nncn1C)c1cccc(N2Cc3c(cc(-n4cccn4)cc3C(F)(F)F)C2=O)c1` [Compound 384, (R)-2-(3-(1-(4-methyl-4H-1,2,4-triazol-3-yl)propan-2-yl)phenyl)-6-(1H-pyrazol-1-yl)-4-(trifluoromethyl)isoindolin-1-one]: the IC50 on Cbl-b [1] was no more than 100 nM; at Cbl-b [6] it was less than 100 nM. Moreover, the fold induction at 0.3 µM with T-cell [2] fell in the range of 1.31 to 1.5; in the assay on T-cell [4] it was 2.51 to 5. For the same compound, the fold induction at 1 µM in the assay with T-cell [2] was 1.51 to 1.75; in the assay on T-cell [3], greater than 1; in the assay with T-cell [4] it was greater than 7.5; with T-cell [5], greater than 0.201. Further, the fold induction at 4 µM with T-cell [2] was 1.51 to 1.75; in the assay on T-cell [4] it was greater than 7.5. Further, the fold induction at 8 µM with T-cell [3] is greater than 1; with T-cell [5], greater than 0.201. The same compound came in with a Kd at Cbl-b (residues 36-427) of less than 100 nM.

As to `C[C@H](Cc1nncn1C)c1cccc(N2Cc3c(cc(CO)cc3C(F)(F)F)C2=O)c1` [Compound 392, (R)-6-(hydroxymethyl)-2-(3-(1-(4-methyl-4H-1,2,4-triazol-3-yl)propan-2-yl)phenyl)-4-(trifluoromethyl)isoindolin-1-one], the figures for the IC50 at Cbl-b [1] and on Cbl-b [6] were no more than 100 nM and less than 100 nM, respectively. In addition, the values for the fold induction at 0.3 µM in the assay with T-cell [2] and in the assay with T-cell [4] were 1.01 to 1.3 and 2.51 to 5, respectively. Besides, the fold induction at 1 µM is 1.01 to 1.3 in the assay with T-cell [2], greater than 1 with T-cell [3], 5 to 7.5 with T-cell [4] and 0.151 to 0.2 in the assay with T-cell [5]. For the same compound, the values for the fold induction at 4 µM in the assay on T-cell [2] and with T-cell [4] were 1.31 to 1.5 and greater than 7.5, respectively. For the same compound, the fold induction at 8 µM is greater than 1 in the assay on T-cell [3] and greater than 0.201 in the assay on T-cell [5]. Moreover, the Kd at Cbl-b (residues 36-427) was less than 100 nM.

With `C[C@H](Cc1nncn1C)c1cccc(N2Cc3c(cc(CN4C[C@@H](O)[C@H](F)C4)cc3C(F)(F)F)C2=O)c1` [Compound 395, 6-(((3R,4R)-3-fluoro-4-hydroxypyrrolidin-1-yl)methyl)-2-(3-((R)-1-(4-methyl-4H-1,2,4-triazol-3-yl)propan-2-yl)phenyl)-4-(trifluoromethyl)isoindolin-1-one], the IC50 was no more than 100 nM at Cbl-b [1] and less than 100 nM at Cbl-b [6]. Moreover, the fold induction at 0.3 µM lay in the range of 1.01 to 1.3 in the assay on T-cell [2] and 2.51 to 5 in the assay with T-cell [4]. Also, the fold induction at 1 µM in the assay on T-cell [2] is 1.31 to 1.5; in the assay on T-cell [3] it was greater than 1; in the assay with T-cell [4] it was greater than 7.5; in the assay on T-cell [5], greater than 0.201. Further, the results for the fold induction at 4 µM with T-cell [2] and in the assay with T-cell [4] were 1.31 to 1.5 and greater than 7.5, respectively. For the same compound, the values for the fold induction at 8 µM with T-cell [3] and in the assay with T-cell [5] were greater than 1 and greater than 0.201, respectively. For the same compound, on Cbl-b (residues 36-427), the Kd was less than 100 nM.

As to `C[C@H](Cc1nncn1C)c1cccc(N2Cc3c(cc(CN4CCC(F)(F)C4)cc3C(F)(F)F)C2=O)c1` [Compound 396, (R)-6-((3,3-difluoropyrrolidin-1-yl)methyl)-2-(3-(1-(4-methyl-4H-1,2,4-triazol-3-yl)propan-2-yl)phenyl)-4-(trifluoromethyl)isoindolin-1-one], the IC50 at Cbl-b [1] was no more than 100 nM; at Cbl-b [6], less than 100 nM. The figures for the fold induction at 0.3 µM in the assay with T-cell [2] and in the assay with T-cell [4] were 1.01 to 1.3 and 2.51 to 5, respectively. Further, the fold induction at 1 µM is 1.01 to 1.3 in the assay with T-cell [2], greater than 1 in the assay with T-cell [3], 5 to 7.5 in the assay on T-cell [4] and 0.151 to 0.2 with T-cell [5]. For the same compound, the fold induction at 4 µM in the assay on T-cell [2] was 1.31 to 1.5; in the assay with T-cell [4], greater than 7.5. Moreover, the fold induction at 8 µM in the assay on T-cell [3] was greater than 1; with T-cell [5], greater than 0.201. On Cbl-b (residues 36-427), this compound registered a Kd of less than 100 nM.

`C[C@H](Cc1nncn1C)c1cccc(N2Cc3c(cc(CN4CC[C@@H](F)C4)cc3C(F)(F)F)C2=O)c1` [Compound 400, 6-(((R)-3-fluoropyrrolidin-1-yl)methyl)-2-(3-((R)-1-(4-methyl-4H-1,2,4-triazol-3-yl)propan-2-yl)phenyl)-4-(trifluoromethyl)isoindolin-1-one]: the IC50 on Cbl-b [1] was no more than 100 nM; at Cbl-b [6], less than 100 nM. Besides, the fold induction at 0.3 µM with T-cell [2] fell in the range of 1.01 to 1.3; in the assay on T-cell [4] it was 5 to 7.5. The fold induction at 1 µM with T-cell [2] is 1.01 to 1.3; in the assay with T-cell [3], greater than 1; with T-cell [4], greater than 7.5; in the assay on T-cell [5], greater than 0.201. Moreover, the fold induction at 4 µM was 1.31 to 1.5 in the assay with T-cell [2] and greater than 7.5 with T-cell [4]. Besides, the fold induction at 8 µM is greater than 1 with T-cell [3] and greater than 0.201 in the assay on T-cell [5]. The compound also came in with a dissociation constant (Kd) at Cbl-b (residues 36-427) of less than 100 nM.

Regarding `C[C@H](Cc1nncn1C)c1cccc(N2Cc3c(cc(CN4CC(F)C4)cc3C(F)(F)F)C2=O)c1` [Compound 401, (R)-6-((3-fluoroazetidin-1-yl)methyl)-2-(3-(1-(4-methyl-4H-1,2,4-triazol-3-yl)propan-2-yl)phenyl)-4-(trifluoromethyl)isoindolin-1-one], the IC50 was no more than 100 nM on Cbl-b [1] and less than 100 nM on Cbl-b [6]. In addition, the results for the fold induction at 0.3 µM in the assay with T-cell [2] and with T-cell [4] were 1.01 to 1.3 and 2.51 to 5, respectively. The fold induction at 1 µM in the assay on T-cell [2] was 1.01 to 1.3; in the assay with T-cell [3] it was greater than 1; with T-cell [4], greater than 7.5; in the assay on T-cell [5], 0.151 to 0.2. The fold induction at 4 µM with T-cell [2] is 1.31 to 1.5; in the assay with T-cell [4], greater than 7.5. In addition, the fold induction at 8 µM in the assay on T-cell [3] was greater than 1; in the assay on T-cell [5] it was greater than 0.201. On Cbl-b (residues 36-427), this compound yielded a Kd of less than 100 nM.

On to `C[C@H](Cc1nncn1C)c1cccc(N2Cc3c(cc(CN4CC(F)(F)C4)cc3C(F)(F)F)C2=O)c1` [Compound 402, (R)-6-((3,3-difluoroazetidin-1-yl)methyl)-2-(3-(1-(4-methyl-4H-1,2,4-triazol-3-yl)propan-2-yl)phenyl)-4-(trifluoromethyl)isoindolin-1-one], for which the IC50 is no more than 100 nM on Cbl-b [1] and less than 100 nM on Cbl-b [6]. In addition, the fold induction at 0.3 µM in the assay on T-cell [2] lay in the range of 1.01 to 1.3; with T-cell [4], 5 to 7.5. The fold induction at 1 µM in the assay with T-cell [2] was 1.31 to 1.5; with T-cell [3] it was greater than 1; with T-cell [4] it was greater than 7.5; in the assay with T-cell [5], 0.151 to 0.2. Also, the fold induction at 4 µM in the assay with T-cell [2] is 1.31 to 1.5; in the assay with T-cell [4], greater than 7.5. The fold induction at 8 µM in the assay on T-cell [3] is greater than 1; with T-cell [5], greater than 0.201. Also, on Cbl-b (residues 36-427), the Kd was less than 100 nM.
